Data set [1] has as its system HCC1806. In words: Antiproliferative activity against human HCC1806 cells assessed as inhibition of cell proliferation at 1 uM incubated for 24 hrs by SRB assay relative to control. It counts as functional.
Data set [2] relates to HCC1806. Put plainly: Antiproliferative activity against human HCC1806 cells assessed as inhibition of cell proliferation incubated for 24 hrs by SRB assay. The following applies: HCC1806, 24 h. It counts as functional, cell-based.
Data set [3] relates to HCC1806. In words: Induction of morphological changes in human HCC1806 cells assessed as rate of intracellular vacuolization at 1 uM incubated for 24 hrs by microscopic analysis relative to control. It counts as functional.
Data set [4] deals with HCC1806. Put plainly: Antiproliferative activity against human HCC1806 cells assessed as inhibition of cell proliferation at 2 uM incubated for 24 hrs by SRB assay relative to control. The class given is functional.
For data set [5], the system named is 184B5. Put plainly: Cytotoxicity against human 184B5 cells assessed as reduction in cell viability at 2 uM incubated for 24 hrs by SRB assay. The following applies: 184b5, 24 h. It counts as toxicity, cell-based.

Each structure is given as a SMILES string.

`COc1cc(Nc2nc(N3CCNCC3)ncc2Br)ccc1NC(=O)c1cccc(Br)n1`: in data set [1], the inhibition at 1 µM amounted to 99.3%. In addition, in data set [2], the IC50 is 420 nM. Further, the Activity was 65% in data set [3] and “Non-Toxic” in data set [5]. The inhibition at 2 µM in data set [4] was found to be 38.1%. For `COc1cnc(N2CCNCC2)nc1Nc1ccc(NC(=O)c2cccc(C)n2)cc1C(F)(F)F`, the inhibition at 1 µM in data set [1] stood at 11.2%. Turning to `COc1cnc(N2CCNCC2)nc1Nc1ccc(NC(=O)c2ccccn2)cc1C(F)(F)F`, the inhibition at 1 µM in data set [1] was 4.52%. As to `COc1cnc(N2CCNCC2)nc1Nc1cc(C)c(NC(=O)c2cccc(Br)n2)cc1C`, the inhibition at 1 µM in data set [1] is 98.9%. For the same compound, in data set [2], the IC50 came out at 870 nM. In addition, the Activity in data set [3] is listed as 42.33%; in data set [5], “Toxic”. For the same compound, the inhibition at 2 µM in data set [4] worked out at 6.93%. With `COc1cnc(N2CCNCC2)nc1Nc1ccc(NC(=O)c2cccc(Br)n2)cc1OC(F)(F)F`, the inhibition at 1 µM in data set [1] amounted to 84.8%. Turning to `COc1cnc(N2CCNCC2)nc1Nc1ccc(NC(=O)c2ccco2)cc1C(F)(F)F`, the inhibition at 1 µM in data set [1] was determined as 1.86%. With `COc1cnc(N2CCNCC2)nc1Nc1ccc(NC(=O)c2cccs2)cc1C(F)(F)F`, the inhibition at 1 µM in data set [1] was 4.93%. For the compound `COc1cc(Nc2ccnc(N3CCNCC3)n2)ccc1NC(=O)c1cccc(Br)n1`, in data set [1], the inhibition at 1 µM was determined as 10.6%. As to `COc1cc(Nc2nc(N3CCOCC3)ncc2OC)ccc1NC(=O)c1cccc(Br)n1`, the inhibition at 1 µM in data set [1] stood at 1.41%.

Regarding `COc1cnc(N2CCNCC2)nc1Nc1ccc(NC(=O)c2cccc(Br)n2)cc1C`, the inhibition at 1 µM in data set [1] came out at 3.6%. Take `COc1cnc(N2CCNCC2)nc1Nc1ccc(NC(=O)c2cccc(Br)n2)cc1`: in data set [1], the inhibition at 1 µM came out at 17.4%. Consider `COc1cnc(N2CCNCC2)nc1Nc1ccc(NC(=O)c2cc(Br)ccn2)cc1C(F)(F)F`, for which the inhibition at 1 µM in data set [1] worked out at 12.3%. On the same count and under the same terms, the same measure for `COc1cc(Nc2ncnc(N3CCNCC3)n2)ccc1NC(=O)c1cccc(Br)n1`: 10.8%; for `COc1cc(Nc2cc(N3CCNCC3)nc(SC)n2)ccc1NC(=O)c1cccc(Br)n1`: 11.1%. `COc1cc(Nc2nc(N3CCNCC3)ncc2OC)ccc1NC(=O)c1cccc(Br)n1`: the inhibition at 1 µM in data set [1] worked out at 99.3%. Besides, the IC50 in data set [2] was found to be 770 nM. Further, the Activity in data set [3] is listed as 26.5%; in data set [5], “Non-Toxic”. Besides, in data set [4], the inhibition at 2 µM was found to be 59.9%. With `COc1cc(Nc2cc(N3CCNCC3)ncn2)ccc1NC(=O)c1cccc(Br)n1`, in data set [1], the inhibition at 1 µM was 11.5%. Turning to `COc1nc(Nc2ccc(NC(=O)c3cccc(Br)n3)c(OC)c2)nc(N2CCNCC2)n1`, in data set [1], the inhibition at 1 µM worked out at 4.27%. `COc1cnc(N2CCNCC2)nc1Nc1ccc(NC(=O)c2cccc(Br)n2)cc1C(F)(F)F`: the inhibition at 1 µM in data set [1] amounted to 99%. Moreover, the IC50 in data set [2] was 580 nM. Moreover, the Activity is on record as 41.5% in data set [3] and “Non-Toxic” in data set [5]. For the same compound, the inhibition at 2 µM in data set [4] turned out to be 71.7%. As for `COc1cnc(N2CCNCC2)nc1Nc1ccc(NC(=O)c2cccnc2)cc1C(F)(F)F`, in data set [1], the inhibition at 1 µM turned out to be 4.54%. Consider `COc1cnc(N2CCNCC2)nc1Nc1ccc(NC(=O)c2cccc(F)n2)cc1C(F)(F)F`, for which the inhibition at 1 µM in data set [1] was found to be 4.48%. Consider `COc1cnc(N2CCNCC2)nc1Nc1ccc(NC(=O)c2ncccc2Br)cc1C(F)(F)F`, for which the inhibition at 1 µM in data set [1] was found to be 6.13%. As for `COc1cnc(N2CCNCC2)nc1Nc1ccc(NC(=O)Cc2cccs2)cc1C(F)(F)F`, the inhibition at 1 µM in data set [1] worked out at 6.92%.

As to `COc1cc(Nc2nc(N3CCNCC3)ncc2Cl)ccc1NC(=O)c1cccc(Br)n1`, in data set [1], the inhibition at 1 µM came to 99.2%. Also, the IC50 in data set [2] stood at 590 nM. Also, the Activity in data set [3] is reported as 42.33%; in data set [5], “Toxic”. In data set [4], the inhibition at 2 µM stood at 10.7%. For `COc1cnc(N2CCNCC2)nc1Nc1ccc(NC(=O)c2ccncn2)cc1C(F)(F)F`, the inhibition at 1 µM in data set [1] came out at 6.52%. Take `COc1cc(Nc2nc(N3C[C@@H](C)O[C@@H](C)C3)ncc2OC)ccc1NC(=O)c1cccc(Br)n1`: in data set [1], the inhibition at 1 µM turned out to be 8.34%. Take `COc1cnc(N2CCNCC2)nc1Nc1ccc(NC(=O)c2cccc(Br)c2)cc1C(F)(F)F`: in data set [1], the inhibition at 1 µM came out at 8.87%. Same read-out and setting: the same measure for `COc1cc(Nc2nc(N3CCC(OC)CC3)ncc2OC)ccc1NC(=O)c1cccc(Br)n1`: 7.54%. With `COc1cc(NC(=O)c2cccc(Br)n2)ccc1Nc1nc(N2CCNCC2)ncc1OC`, the inhibition at 1 µM in data set [1] was found to be 97.4%. Further, the IC50 in data set [2] amounted to 970 nM. The Activity in data set [3] was 30.17%; in data set [5], “Toxic”. In data set [4], the inhibition at 2 µM stood at 10.4%. Take `COc1cnc(N2CCNCC2)nc1Nc1ccc(NC(=O)c2cccc(Br)n2)cc1C#N`: in data set [1], the inhibition at 1 µM amounted to 99%. The IC50 in data set [2] turned out to be 890 nM. Moreover, the figures for the Activity in data set [3] and in data set [5] were 39.5% and “Toxic”, respectively. For the same compound, the inhibition at 2 µM in data set [4] was 12.6%.

`COc1cnc(N2CCNCC2)nc1Nc1ccc(NC(=O)c2cccc(Br)n2)cn1`: in data set [1], the inhibition at 1 µM was 9.96%. As to `COc1cnc(N2CCNCC2)nc1Nc1ccc(NC(=O)c2cccc(Br)n2)c(C)c1`, the inhibition at 1 µM in data set [1] was 23.3%. On to `COc1cnc(N2CCNCC2)nc1Nc1ccc(NC(=O)c2cccc(Cl)n2)cc1C(F)(F)F`, for which the inhibition at 1 µM in data set [1] was found to be 94.1%. The IC50 in data set [2] turned out to be 370 nM. For the same compound, the Activity in data set [3] is on record as 36.83%; in data set [5], “Non-Toxic”. The inhibition at 2 µM in data set [4] stood at 52.9%.

On to `COc1cnc(N2CCNCC2)nc1Nc1ccc(NC(=O)c2ccncc2)cc1C(F)(F)F`, for which the inhibition at 1 µM in data set [1] turned out to be 9.77%. As to `COc1cnc(N2CCNCC2)nc1Nc1ccc(NC(=O)c2ccc3ccccc3n2)cc1C(F)(F)F`, in data set [1], the inhibition at 1 µM is 13.3%.

For the origin of these results see ChEMBL document CHEMBL5338793, “Discovery of Pyrimidinediamine Derivatives as Potent Methuosis Inducers for the Treatment of Triple-Negative Breast Cancer” (J Med Chem, 2023).
